The test system of series [1] is Rattus norvegicus. Kind of series: Toxicity in rat assessed as vacuolation at high dose, po for 7 days. The series is classed as organism-based. The settings on record: in vivo, 168 h.
Series [2] can be described thus: Metabolic stability in human liver microsomes. The format is ADME, Microsome. To be noted: read-out: Stability. On the technique in general: Liver microsomes are vesicles of endoplasmic reticulum, rich in cytochrome P450 enzymes.
The nature of series [3]: Metabolic stability in rat liver microsomes. The format is ADME, Microsome. To be noted: read-out: Stability.
The subject of a further series is Canis familiaris. Kind of series: Toxicity in dog assessed as adverse events dosed orally for 7 days. The series is classed as organism-based, Canis lupus familiaris. To be noted: in vivo, po, 168 h.
For series [4], the target named is T1, Histamine H4 receptor (Homo sapiens, UniProt Q9H3N8). In words: Displacement of [3H]-histamine from full length human H4R expressed in HEK293 cells. The format is cell-based. Background: Loss of bound radioactivity is the signal in a displacement assay; it reports binding, not function.
Series [5] deals with T1, Histamine H4 receptor. In words: Antagonist activity at full length human H4R expressed in HEK293 cells assessed as reversal of forskolin-induced cAMP production by CRE-beta-lactamase reporter gene assay. The series is classed as functional, cell-based. For orientation: Changes in cAMP serve as a functional read-out for many G protein-coupled receptors.
The nature of series [6]: Lipophilicity, log D of the compound. The format is physicochemical. To be noted: octanol/water.
A short description of series [7]: Half life in rat at 1 mg/kg, iv and 1 mg/kg, po. The format is ADME, organism-based. The settings on record: in vivo.
A short description of series [8]: Oral bioavailability in rat at 1 mg/kg. The format is ADME, organism-based. To be noted: in vivo.
Series [9] relates to Rattus norvegicus. In words: Toxicity in po dosed rat assessed as lymphoid depletion from spleen for 4 days. The format is organism-based. To be noted: in vivo, 96 h.
Series [10] concerns Rattus norvegicus. In words: Toxicity in po dosed rat assessed as lymphoid depletion from thymus for 4 days. The format is organism-based. To be noted: in vivo, 96 h.
The test system of series [11] is Rattus norvegicus. In words: Toxicity in po dosed rat assessed as lymphoid depletion from gut for 4 days. The format is organism-based. The settings on record: in vivo, 96 h.
In series [12] the test system is Rattus norvegicus. In words: Toxicity in po dosed rat assessed as decrease in reticulocyte counts for 4 days. To be noted: in vivo, 96 h. The series is classed as organism-based.
Series [13] has as its system Rattus norvegicus. In words: Toxicity in po dosed rat assessed as decrease in erythropoiesis for 4 days. The format is organism-based, Erythrocyte. The settings on record: in vivo, 96 h.
A short description of series [14]: Blood clearance in dog at 3 mg/kg, iv. The series is classed as ADME, organism-based, Canis lupus familiaris. Set-up: dose 3 mg/kg, route intravenous.
Series [15] is described as follows: Volume of distribution in dog blood at 3 mg/kg, iv. The series is classed as ADME, organism-based, Canis lupus familiaris. Also on record: dose 3 mg/kg, route intravenous.
Series [16] is described as follows: Half life in dog at 3 mg/kg, iv. The series is classed as ADME, organism-based, Canis lupus familiaris. Set-up: dose 3 mg/kg, route intravenous. To be noted: in vivo.
Series [17] can be described thus: Blood clearance in rat at 1 mg/kg, iv and 1 mg/kg, po. The format is ADME, organism-based.
Series [18] can be described thus: Volume of distribution in rat blood at 1 mg/kg, iv and 1 mg/kg, po. The format is ADME, organism-based.
Series [19] deals with Rattus norvegicus. Kind of series: Toxicity in rat assessed as bone marrow cytology changes at high dose, po for 7 days. The format is organism-based. To be noted: in vivo, 168 h.
The subject of another series is Liver microsomes. In words: Metabolic stability in human liver microsomes assessed as reactive metabolite generation. The format is ADME, Microsome.
Series [20] relates to HEK-293T. Kind of series: Agonist activity at macaque H4R expressed in HEK293T cells assessed as reversal of forskolin-induced cAMP production by CRE-beta-lactamase reporter gene assay. The series is classed as functional, cell-based. The settings on record: Macaca mulatta.
The test system of series [21] is HEK-293T. In words: Agonist activity at dog H4R expressed in HEK293T cells assessed as reversal of forskolin-induced cAMP production by CRE-beta-lactamase reporter gene assay. The format is functional, cell-based. The settings on record: Canis lupus familiaris.
Series [22] deals with T2, Histamine H4 receptor (Cavia porcellus) (UniProt Q91ZY3).
T2 sequence (whole entry): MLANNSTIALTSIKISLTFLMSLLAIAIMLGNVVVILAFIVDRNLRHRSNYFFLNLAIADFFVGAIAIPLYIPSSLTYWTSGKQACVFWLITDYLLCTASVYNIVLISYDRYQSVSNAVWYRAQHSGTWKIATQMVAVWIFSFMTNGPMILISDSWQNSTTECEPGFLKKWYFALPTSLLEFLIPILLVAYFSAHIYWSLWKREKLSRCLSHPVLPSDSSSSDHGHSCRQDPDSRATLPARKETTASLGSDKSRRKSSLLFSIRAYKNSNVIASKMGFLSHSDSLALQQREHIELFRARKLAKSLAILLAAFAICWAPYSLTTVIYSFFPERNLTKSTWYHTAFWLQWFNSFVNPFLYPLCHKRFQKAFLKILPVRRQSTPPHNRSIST
Kind of series: Agonist activity at guinea pig H4R expressed in HEK293T cells assessed as reversal of forskolin-induced cAMP production by CRE-beta-lactamase reporter gene assay. The format is functional, cell-based. The settings on record: HEK-293T.

Series [23] in a line: Displacement of [3H]-histamine from macaque H4R expressed in HEK293T cells. The series is classed as cell-based, Macaca mulatta. To be noted: hek-293t.
Series [24] can be described thus: Displacement of [3H]-histamine from dog H4R expressed in HEK293T cells. The format is cell-based, Canis lupus familiaris. The settings on record: hek-293t.

Calls of active or inactive are those of the source. The rule behind the calls is not given here. Bounds are passed on as bounds.

T1 sequence (Q9H3N8 whole entry): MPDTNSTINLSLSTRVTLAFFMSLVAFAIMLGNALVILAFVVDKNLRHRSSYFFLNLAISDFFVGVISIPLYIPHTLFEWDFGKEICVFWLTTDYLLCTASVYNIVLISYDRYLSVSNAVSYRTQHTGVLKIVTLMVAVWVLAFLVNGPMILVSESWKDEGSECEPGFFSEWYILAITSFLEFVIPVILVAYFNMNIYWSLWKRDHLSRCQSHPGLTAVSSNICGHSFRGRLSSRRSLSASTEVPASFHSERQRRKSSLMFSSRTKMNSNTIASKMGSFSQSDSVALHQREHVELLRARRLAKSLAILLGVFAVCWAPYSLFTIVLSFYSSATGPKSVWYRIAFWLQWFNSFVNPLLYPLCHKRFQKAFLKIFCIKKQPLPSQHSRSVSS

In general, Ki refers to the equilibrium dissociation constant of an inhibitor or competing ligand from its target. In general, logD refers to lipophilicity at a set pH, counting ionised and neutral species. Low readings indicate a more hydrophilic compound, high ones a more lipophilic compound. What is called half-life is the time in which the quantity being followed falls by half. Read a low half-life as fast loss. As usually defined, the bioavailability is dose-corrected exposure relative to a reference, in per cent. The low end stands for little systemic uptake, the high end for much systemic uptake. `CNC1CN(c2cc(NCC(C)(C)C)nc(N)n2)C1`: the Activity result is given as “Toxic” in the series with Rattus norvegicus [1]; “Non-toxic” with Canis familiaris; “Non-toxic” in the series with Rattus norvegicus [9]; “Non-toxic” in the series on Rattus norvegicus [10]; “Non-toxic” with Rattus norvegicus [11]; “Non-toxic” in the series with Rattus norvegicus [12]. In the series on Rattus norvegicus [13], the Activity result is “Non-toxic”. Moreover, the microsomal CLint in [2] was below 7 µL/min/mg; in series [3], below 8.5 µL/min/mg. The figures for the Ki on Histamine H4 receptor [4] and on Histamine H4 receptor [5] were 1.7 nM and 0.034 nM, respectively. Also, the logD in [6] amounted to 0.7. Further, the half-life in [7] was 414 min; in series [16], 1140 min. Also, the bioavailability in series [8] turned out to be 57%. The clearance worked out at 30 mL/min/kg in [14] and 77 mL/min/kg in [17]. In addition, the Vd in [15] amounted to 48 L/kg; in series [18], 49 L/kg.

For the molecule `CNC1CN(c2cc(NCCC(C)(C)C)nc(N)n2)C1`, the microsomal CLint in series [3] is 33 µL/min/mg. In addition, the Activity entry with Canis familiaris, with Rattus norvegicus [9], with Rattus norvegicus [10], in the series with Rattus norvegicus [11], in the series on Rattus norvegicus [12] and in the series with Rattus norvegicus [13] was “Non-toxic” in each case. In addition, the Ki on Histamine H4 receptor [5] worked out at 1.5 nM.

As to `CNC1CN(c2cc(NCc3cccc(F)c3)nc(N)n2)C1`, the Activity entry in the series on Rattus norvegicus [1] and with Rattus norvegicus [19] was “Toxic” in each case. The microsomal CLint in series [3] was below 8.5 µL/min/mg. The Ki at Histamine H4 receptor [4] came out at 18 nM; on Histamine H4 receptor [5], 13 nM.

Consider `CN1C[C@@H]2CN(C(=O)c3cc4cc(Cl)ccc4[nH]3)C[C@@H]2C1`, for which the microsomal CLint in series [2] was 7 µL/min/mg; in [3] it was 36 µL/min/mg. Further, the Ki at Histamine H4 receptor [5] is 27 nM. In addition, the Stability entry in the series on Liver microsomes is listed as “Unstable”.

In general, pKi refers to −log10 of the Ki, conventionally taken in molar units. A low value points to a large Ki. As to `CN1CCN(C(=O)c2cc3cc(Cl)ccc3[nH]2)CC1` [JNJ-7777120], the outcome (in the series on HEK-293T [20]; in the series with HEK-293T [21]; in series [22]) was Active. Further, the microsomal CLint came to 28 µL/min/mg in [2] and 61 µL/min/mg in series [3]. Also, the logD in series [6] turned out to be 2.6. Also, the pKi in [23] is 7.17; in [24] it was 6.89.

With `CN1C[C@@H]2CN(C(=O)c3nc4cc(F)ccc4[nH]3)C[C@@H]2C1`, the microsomal CLint in [2] was below 7 µL/min/mg; in series [3], 40 µL/min/mg. In addition, the results for the Ki at Histamine H4 receptor [4] and on Histamine H4 receptor [5] were 83 nM and 39 nM, respectively. In addition, the Stability result in the series on Liver microsomes was “Stable”.

The values are drawn from ChEMBL document CHEMBL1914379, “Challenges of drug discovery in novel target space. The discovery and evaluation of PF-3893787: a novel histamine H4 receptor antagonist” (Bioorg Med Chem Lett, 2011).
